# Results published in US5874597A, “Certain aminosterol compounds and pharmaceutical compositions including these compounds” (priority 1995, dated 1999).
# Entries after “also recorded” stand apart in the source; their conditions may differ.
# How the values were obtained:
# NHE3 = conditions: cited from earlier work
# human melanoma = assay: effect on growth of human melanoma (time course, apoptosis); format: cell-based
# [1] = tested on: vitelline capillaries of chick embryo; assay: chick embryo vitelline capillary regression assay; format: in vivo; conditions: for effect on vitelline capillaries / chick embryo: in vivo; for Chick embryo diss. assay, Minimum Effective Concentration: Table II
# Protocol: Using the chick embryo vitelline capillaries assay, compounds were tested for their ability to induce capillary regression. Each compound was applied in 0.1 ml of 15% Ficol 400 and PBS onto the embryo, and vascular regression was assessed after 60 minutes.
# The 3-day chick embryo consists of an embryonic disc from which numerous vessels emerge and return, forming a "figure 8"-shaped structure--the embryo in the center with vascular loops extending outward over both poles. […] Following a lag period of around 15 minutes, the constriction of continuity between capillary and secondary vessels, generally on the "venous" side, was observed. Continued pulsatile blood flow progressed, resulting in a "swelling" of the blind tube, followed by a pinching off of the remaining connection and formation of an enclosed vascular sac resembling a "blood island." This process progressed until only the largest vessels remained intact.
# [2] = tested on: Xenopus tadpole (stage 59-60); assay: Xenopus tadpole assay; format: in vivo, Xenopus laevis; conditions: for pharmacologic similarity in tadpole assay: in vivo; for tadpole response: 10 μg/ml, about 1 hour
# rabbit NHE3 = rabbit NHE3 (Oryctolagus cuniculus, UniProt P26432); assay: inhibition of rabbit NHE3 in transfected PS120 fibroblasts (internal pH, BCECF-AM)
# rabbit NHE3, sequence (P26432 30-832): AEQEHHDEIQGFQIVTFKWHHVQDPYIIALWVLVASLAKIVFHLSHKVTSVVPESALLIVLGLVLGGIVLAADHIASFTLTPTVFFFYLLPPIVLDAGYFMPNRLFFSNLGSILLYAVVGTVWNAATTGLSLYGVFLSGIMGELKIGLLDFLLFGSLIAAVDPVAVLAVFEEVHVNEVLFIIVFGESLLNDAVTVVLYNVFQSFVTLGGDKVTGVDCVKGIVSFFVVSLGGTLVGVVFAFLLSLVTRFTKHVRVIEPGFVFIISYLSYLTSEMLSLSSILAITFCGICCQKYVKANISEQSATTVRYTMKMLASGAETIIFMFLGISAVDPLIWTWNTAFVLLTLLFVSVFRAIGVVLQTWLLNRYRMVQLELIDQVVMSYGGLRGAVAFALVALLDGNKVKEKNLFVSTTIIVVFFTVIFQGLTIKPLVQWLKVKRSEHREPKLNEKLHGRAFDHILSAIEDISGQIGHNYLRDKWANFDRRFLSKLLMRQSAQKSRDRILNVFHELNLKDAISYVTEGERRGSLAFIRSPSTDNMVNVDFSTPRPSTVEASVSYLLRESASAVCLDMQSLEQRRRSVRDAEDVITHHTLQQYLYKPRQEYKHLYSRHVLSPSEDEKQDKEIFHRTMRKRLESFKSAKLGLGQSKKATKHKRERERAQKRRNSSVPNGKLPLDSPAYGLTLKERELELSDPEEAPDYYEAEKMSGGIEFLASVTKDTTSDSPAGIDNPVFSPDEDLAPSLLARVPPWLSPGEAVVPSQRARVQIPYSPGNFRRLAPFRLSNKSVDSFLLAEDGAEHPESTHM
# Protocol: Internal pH was measured either following acid loading or in the absence of an acid-loading challenge, with the results shown in FIGS. 1A and 1B.
# Specifically, PS120 fibroblasts transfected with rabbit NHE3 were grown in supplemented Dulbecco's-modified Eagle's medium as described by Levine et al., J. Biol. Chem. 268, 1993, 25527-25535. […] For cells not acid-preloaded, the actual internal pH value was monitored as a function of time following addition of squalamine, with the results depicted in FIG. 1B.
# PS120 fibroblasts transfected with rabbit NHE3 were grown and acid preloaded by exposure to 40 mM NH4 Cl as described above in conjunction with FIGS. 1A and 1B. Internal cellular pH changes expressed as the rate of pH recovery as a function of restored extracellular sodium ion concentration following exposure to 10 μg/ml of the compound were assayed with the fluorescent dye BCECF-AM as described above.
# [3] = tested on: human epithelial cell line MCF 10A; assay: growth inhibition of human epithelial cells; conditions: 10 μg/ml
# human melanoma 1205Lu = assay: suppression of human melanoma 1205Lu in RAG-1 mice; format: in vivo; conditions: 10, 20, 40 mg/kg/d
# Description: As apparent from FIG. 5, melanoma 1205Lu develops aggressively in RAG-1 mice after implantation.
# [4] = tested on: human foreskin fibroblasts; assay: growth inhibition of human fibroblasts; conditions: 10 μg/ml
# B16 melanoma = assay: suppression of B16 melanoma growth in C57B mice; format: in vivo, mouse
# Protocol: The growth of B16 melanoma in C57B mice is dependent upon neovascularization.
# Using the growth of B16 melanoma cells in C57B mice, a recognized model for the evaluation of inhibitors of angiogenesis on the growth of cancers, the effects of subcutaneous, intraperitoneal and oral administration of squalamine were evaluated.
# Based on the idea that tumor growth involves both the clonal expansion of a malignant cell along with the development of a supporting vascular supply, a combination of compound 1436 with squalamine was tested to determine whether it would achieve a synergistic effect on solid tumor growth. This concept was evaluated in the B16 melanoma model.
# Animals were implanted with B16 melanoma followed by treatment with compound 1436 or 1256 administered in a combined schedule or separately. […] Thus, a combination of these two compounds achieves a therapeutic benefit in tumors dependent on neovascularization that may prevent metastatic spread.
# [5] = tested on: Human coronary artery smooth muscle cells; assay: proliferation of human coronary artery smooth muscle in vitro; format: cell-based; conditions: FIG. 15
# Description: As set forth in Table 7 below, all malignant tumors evaluated in tissue culture, endothelial cells and vascular smooth muscle cells were sensitive to inhibition. Thus, compound 1436 has application in the control of growth factor dependent proliferation of many types of tissue.
# Aminosterols of the invention may also have utility in inhibiting the growth factor mediated proliferation of smooth muscle within the artery. Following coronary angioplasty, reocclusion commonly occurs, secondary to reparative proliferation of the vascular smooth muscle within the wall of the surgically manipulated blood vessel. This process generally takes place over the course of 7-10 days. To evaluate whether an agent could prevent the growth factor mediated proliferation of smooth muscle within the artery, compound 1436 was evaluated in vitro for its effect on the proliferation of human coronary artery smooth muscle. Results for compound 1436 are shown in FIG. 13, and those for squalamine are shown in FIG. 14, with FIG. 15 being a composite logarithmic plot.
# [6] = tested on: chorioallantoic membrane capillaries; assay: chorioallantoic membrane (CAM) model, inhibition of capillary growth; format: in vivo, chick; conditions: for Percentage positive, Assay 1 / Percentage positive, Assay 2 / Percentage positive, Mean: 3-Day Embryo
# Description: The growing capillaries within the chorioallantoic membrane model (CAM model) have been used as a system in which to evaluate the effect of agents on their potential to inhibit new vessel growth. Neovascularization occurs most aggressively over the first week of embryonic development. Thereafter capillary growth is characterized by principally "elongation" rather than "de novo" formation.
# In the standard assay, agents are applied locally to a region of the embryo over which neovascularization will occur. Agents are assessed by their ability to inhibit this process, as evaluated by visual examination about 7 days after application. […] The assay utilized is described in detail in Auerbach et al., Pharm. Ther. 51, 1991, 1-11.
# [7] = tested on: human microvascular cells; assay: inhibition of endothelial cell cord formation in vitro; format: cell-based; conditions: at cord-inhibiting concentrations
# Description: Endothelial cells have the capacity in vitro to form tubular aggregates resembling capillaries in various early stages of formation. This conversion occurs under relatively specific conditions, in which essential growth factors along with an effective substratum are provided. It has been shown that both the interaction of growth factors with the endothelial cell and its attachment to a substratum activate the NHE. The activation of this exchanger is believed to be required for subsequent morphologic transformation of the endothelial cell into a multicellular tubular structure.
# To assess the effect of compounds on the cord-like structures formed by human microvascular cells when plated in the presence of VEGF (Vascular Endothelial Growth Factor) and basic fibroblast growth factor on a collagen matrix, a standard cord formation assay was used.
# [8] = tested on: human umbilical venous endothelial cells; assay: LPS/TNF-α-induced neutrophil adherence to human umbilical venous endothelial cells; format: cell-based; conditions: three different subjects; LPS or TNF-α activated
# Description: Methods 109, 1988, 175-184.
# NHE = assay: direct inhibition of NHE
# Description: Moreover, other aminosterols have shown anti-angiogenic activity. Compounds were subjected to a various assays, including the chick embryo capillary regression assay, the tadpole assay, the assay for inhibition of endothelial cord formation, and the assay for direct inhibition of NHE, as described above, to determine their utilities. As evident from the above data, correlation among the results from the chick, tadpole and in vitro inhibition of endothelial cell cord formation assays is excellent.
# [9] = 20 μg, * = some vascular irritation noted
# [10] = 40 μg, * = some vascular irritation noted
compound,measurement,setting,value
"N=C(N)NC(=O)c1nc(Cl)c(N)nc1N [Amiloride, amiloride]","effect on NHE3 kinetics (Km, Vmax)",NHE3,affected only Vmax
CC(C)CCC[C@@H](C)[C@H]1CC[C@H]2[C@@H]3CC[C@H]4C[C@@H](NCCCNCCCCNCCCN)CC[C@]4(C)[C@H]3CC[C@]12C [Compound 353],mechanism of cell death,human melanoma,apoptotic cell death has been induced
same,time dependence of effect on growth of melanoma,human melanoma; FIG. 17A,most pronounced over 48 hours
same,effect on vitelline capillaries / chick embryo,[1],no effect on the chick embryo capillary bed
CC(C)CCC[C@@H](C)[C@H]1CC[C@H]2[C@@H]3[C@H](O)C[C@H]4C[C@H](N)CC[C@]4(C)[C@H]3CC[C@]12C [Compound 1363],pharmacologic similarity in tadpole assay,[2],pharmacologic activity similar to Fraction 1
"CC(COS(=O)(=O)O)C(=O)CC[C@@H](C)[C@H]1CC[C@H]2[C@@H]3[C@H](O)C[C@H]4C[C@@H](NCCCNCCCCN)CC[C@]4(C)[C@H]3CC[C@]12C (single isomer, unassigned) [Compound 1360]",tadpole response,[2],Swelling and lysis of certain erythrocytes occurred; also recorded: extensive vasocclusion occurred within 60 minutes throughout the tail
same,effect on vitelline capillaries / chick embryo,[1],the blood circulating through the embryonic vessels exhibited a brighter red color
CC(C)[C@@H](CC[C@@H](C)[C@H]1CC[C@H]2[C@@H]3[C@H](O)C[C@H]4C[C@@H](NCCCNCCCCN)CC[C@]4(C)[C@H]3CC[C@]12C)OS(=O)(=O)O [squalamine],specificity NHE3 over NHE1,rabbit NHE3,specificity for NHE3 over NHE1
same,inhibition of NHE3 (Km and Vmax),"rabbit NHE3; 5 μg/ml, acid-preloaded 40 mM NH4Cl",inhibited NHE3 with respect to proton concentration at both Km and Vmax levels
same,resting pH of cells,"rabbit NHE3; 5 μg/ml, not acid-preloaded",the resting pH of these cells was also inhibited
same,growth of epithelial line,[3],no effect
same,suppression of growth of melanoma 1205Lu,human melanoma 1205Lu,clear suppression of tumor growth in a dose-dependent fashion; also recorded: reversible
same,growth of fibroblast line,[4],no effect
same,impact on tumor volume,B16 melanoma; squalamine 5 mg/kg/day alone,no significant impact on tumor volume
same,suppression of B16 tumor volume,"B16 melanoma; squalamine s.c., i.p. or oral, C57B mice",dose-dependent suppression of tumor volume
same,body weight and hematologic parameters,B16 melanoma; squalamine-treated mice,no significant depression
same,tadpole response,[2],blood flow through the capillaries of the tail shut down; also recorded: unaltered blood flow through the fine capillaries of the hands and feet; also recorded: common vascular occlusive effect; also recorded: Vascular occlusion in fine capillaries of tail; also recorded: No effect on vascular flow through hands or feet
same,suppression of growth of human coronary artery smooth muscle,[5],suppress in vitro the growth of human coronary artery smooth muscle
same,"Percentage positive, Assay 1",[6]; 0.65 μg,28%
same,"Percentage positive, Assay 1",[6]; 1.25 μg,18%
same,"Percentage positive, Assay 2",[6]; 1.25 μg,18%
same,"Percentage positive, Mean",[6]; 1.25 μg,18%
same,"Percentage positive, Assay 1",[6]; 2.5 μg,35%
same,"Percentage positive, Assay 2",[6]; 2.5 μg,18%
same,"Percentage positive, Mean",[6]; 2.5 μg,27%
same,"Percentage positive, Assay 1",[6]; 5.0 μg,91%
same,"Percentage positive, Assay 2",[6]; 5.0 μg,57%
same,"Percentage positive, Mean",[6]; 5.0 μg,74%
same,"Percentage positive, Mean",[6]; 20 μg,55%
same,"Percentage positive, Assay 1",[6]; [9],52* %
same,"Percentage positive, Assay 2",[6]; [9],58* %
same,"Percentage positive, Mean",[6]; 40 μg,32%
same,"Percentage positive, Assay 1",[6]; [10],50* %
same,"Percentage positive, Assay 2",[6]; [10],13* %
same,"positive, Assay 1 (count)","[6]; 13-Day Embryo, 5.0 μg",0/26
same,inhibitory effect on older CAM,"[6]; 13-day old chick, ten times 0.65 μg",no inhibitory effect
same,effect on cell viability or proliferation in cord assay,[7],does not appear to profoundly affect cell viability or proliferation
same,effect on vitelline capillaries / chick embryo,[1],disrupt vitelline capillaries in 3- to 5-day chick embryos; also recorded: No hemorrhage was seen; also recorded: absence of hemolysis; also recorded: especially active
same,inhibition of neutrophil adherence,[8],no inhibition
C[C@H](CCC(=O)O)[C@H]1CC[C@H]2[C@@H]3[C@H](O)C[C@@H]4C[C@H](NCCN)CC[C@]4(C)[C@H]3CC[C@]12C [Compound 414],pharmacologic similarity in tadpole assay,[2],pharmacologic activity similar to Fraction 1
C[C@H](CCC(=O)O)[C@H]1CC[C@H]2[C@@H]3CC[C@H]4C[C@@H](NCCCNCCCCN)CC[C@]4(C)[C@H]3CC[C@]12C [Compound 319],potency as an NHE inhibitor,NHE,superior to squalamine
same,control of B16 melanoma,"B16 melanoma; compound 319 subcutaneous, C57B mice, FIG. 6",almost comparable to squalamine
same,tadpole response,[2],common vascular occlusive effect
same,effect on vitelline capillaries / chick embryo,[1],especially active
CC(CCC(=O)O)[C@H]1CCC2C3C(CC[C@@]21C)[C@@]1(C)CC[C@@H](NCCCNCCCCNCCCN)C[C@H]1C[C@H]3O (some centres unmarked),"Chick embryo diss. assay, Minimum Effective Concentration",[1],1 µg
CC(CCC(=O)O)[C@H]1CCC2C3CC[C@H]4C[C@H](NCCCNCCCCN)CC[C@]4(C)C3CC[C@@]21C (some centres unmarked),"Chick embryo diss. assay, Minimum Effective Concentration",[1],> 10 µg
CC(CCC(=O)O)[C@H]1CCC2C3C(CC[C@@]21C)[C@@]1(C)CC[C@H](NCCCNCCCCNCCCN)C[C@@H]1C[C@H]3O (some centres unmarked),"Chick embryo diss. assay, Minimum Effective Concentration",[1],1 µg
